Source: paper PMC9959265, “Permethrin as a Potential Furin Inhibitor through a Novel Non-Competitive Allosteric Inhibition” (Molecules, 2023)
pIC50: −log10 of the molar value.

Experiments:
trypsin = experiment: Inhibition effect on trypsin (control protease); format: biochemical; conditions: Figure S1E
Hep-G2 cells = experiment: Cellular cytotoxicity (CCK8), Hep-G2; format: cell-based, human; conditions: Hep-G2 (high furin expression), 24 or 48 h
Description: (§1) Furin is highly expressed in liver cancer cells and has specific effects on hepatocellular carcinoma. Therefore, human hepatocellular carcinoma cells Hep-G2 were selected as experimental cells, cervical carcinoma cells HeLa with similar furin expression in Hep-G2 were selected as control, and human permanent hepatocytes L-02 were selected as negative control. DMEM was used for HeLa, and 1640 medium was used for Hep-G2 and L-02. After incubation for 24 h with 100 μL complete medium in 96-well plates with 8000 cells per well, the medium was aspirated, 100 μL serum-free medium containing a concentration gradient of the compound was added and the samples were incubated. After 24 or 48 h the drug-containing medium was aspirated and 100 μL medium solution containing 10% CCK8 was added, subsequently, the absorbance was measured at 450 nm using a microplate reader after 1 h of incubation.

HeLa cells = experiment: Cellular cytotoxicity (CCK8), HeLa; format: cell-based; conditions: HeLa (high furin expression), 24 or 48 h
Description: as §1

L-02 cells = experiment: Cellular cytotoxicity (CCK8), L-02; format: cell-based, human; conditions: L-02 normal liver cells (low furin expression), 24 or 48 h
Description: as §1

furin [1] = molecular target: T1, furin (Homo sapiens, UniProt P09958)
T1 sequence (P09958 108-574 limits assumed): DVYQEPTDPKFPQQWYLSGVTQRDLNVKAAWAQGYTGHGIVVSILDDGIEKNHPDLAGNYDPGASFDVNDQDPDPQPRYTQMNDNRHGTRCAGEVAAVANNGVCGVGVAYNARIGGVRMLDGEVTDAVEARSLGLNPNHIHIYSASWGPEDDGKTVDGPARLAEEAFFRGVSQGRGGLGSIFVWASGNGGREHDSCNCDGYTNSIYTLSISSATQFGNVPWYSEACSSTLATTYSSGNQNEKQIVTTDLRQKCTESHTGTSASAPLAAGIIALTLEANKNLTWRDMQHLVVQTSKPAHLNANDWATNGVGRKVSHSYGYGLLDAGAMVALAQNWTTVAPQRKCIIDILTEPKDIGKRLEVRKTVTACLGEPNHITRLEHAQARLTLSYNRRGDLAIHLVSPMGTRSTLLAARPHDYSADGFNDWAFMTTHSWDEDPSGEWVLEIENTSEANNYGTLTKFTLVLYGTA
Description: For the measurement of enzymatic kinetics and inhibition kinetics, the substrate concentration gradients were set to 0 μM, 2 μM, 5 μM, 10 μM, 20 μM, 40 μM, 60 μM, 80 μM, 100 μM, 120 μM, and the compound concentration gradients to 0 μM, 25 μM, 50 μM, 100 μM. Furin was added to 100 mM HEPES assay system buffer (pH 6.0, containing 0.5% Triton X-100 and 5 mM CaCl2), followed by different concentrations of the compounds to be tested, preincubated at 37 °C for 5 min. Different concentrations of the substrate were added; the sample was incubated at 37 °C for 35 min, and quenched with 1% formic acid. The initial rate of the enzymatic reaction of furin was tested and the curve was plotted.

furin [2] = molecular target: T1, furin; experiment: Furin activity / inhibitor screening assay with Boc-R-V-R-R-AMC substrate; format: biochemical; parameters: His tag; host or cells: E. coli BL21 (DE3)
Description: Boc-Arg-Val-Arg-Arg-AMC (Boc-R-V-R-R-AMC) was used as a substrate for the detection of furin. It carries an AMC ([…]) moiety that fluoresces at an excitation wavelength of 370 nm and an emission wavelength of 460 nm.
The reaction was then incubated for 90 min at 37 °C, supplemented with 40 μM substrate, quenched using 1% formic acid and the enzyme activity was monitored using a Thermo Scientific Varioskan Flash Multi-Mode Microplate Reader.

CC1(C)C(C=C(Cl)Cl)C1C(=O)OCc1cccc(Oc2ccccc2)c1 (stereo not drawn) [YJJ-B0887, permethrin]
inhibitory activity against trypsin (trypsin): to neither enzyme, permethrin has inhibitory activity | cytotoxic effect (Hep-G2 cells): stronger cytotoxic effect | cytotoxic effect (HeLa cells): higher cytotoxic effect | cytotoxic effect (L-02 cells): much weaker | mode of inhibition (furin [1]): non-competitive inhibitor | Km of furin on addition of inhibitor (furin [1]; permethrin 0, 25, 50, 100 μM): does not change | maximum reaction rate of furin on addition of inhibitor (furin [1]; permethrin 0, 25, 50, 100 μM): decreases | inhibition at 50 µM (furin [2]; 50 μM compound, read-out: Inhibition Rate (50 μM)): 55.9% | pIC50 (furin [2]; furin, 40 μM Boc-R-V-R-R-AMC, pH 6.0, 37 °C): 4.41
